# Data: US20250026721A1, “COMPOUNDS AND METHODS FOR MODULATING RAS-PI3K” (Vividion Therapeutics, Inc., priority 2023, published 2025)
# Columns and labels:
# PIK3CA = biological target: T1, PIK3CA (Homo sapiens, UniProt P42336); experiment: In vitro ELISA target engagement assay for PIK3CA in Jurkat cellular lysate (competition with PIK3CA Biotin Probe); format: binding; conditions: 1 hour at rt, then 500 nM PIK3CA Biotin Probe, read-out: Elisa Target Engagement Assay (TE50)
# T1 construct: endogenous in cells; host or cells: Jurkat cell lysate
# T1 sequence (P42336 whole entry): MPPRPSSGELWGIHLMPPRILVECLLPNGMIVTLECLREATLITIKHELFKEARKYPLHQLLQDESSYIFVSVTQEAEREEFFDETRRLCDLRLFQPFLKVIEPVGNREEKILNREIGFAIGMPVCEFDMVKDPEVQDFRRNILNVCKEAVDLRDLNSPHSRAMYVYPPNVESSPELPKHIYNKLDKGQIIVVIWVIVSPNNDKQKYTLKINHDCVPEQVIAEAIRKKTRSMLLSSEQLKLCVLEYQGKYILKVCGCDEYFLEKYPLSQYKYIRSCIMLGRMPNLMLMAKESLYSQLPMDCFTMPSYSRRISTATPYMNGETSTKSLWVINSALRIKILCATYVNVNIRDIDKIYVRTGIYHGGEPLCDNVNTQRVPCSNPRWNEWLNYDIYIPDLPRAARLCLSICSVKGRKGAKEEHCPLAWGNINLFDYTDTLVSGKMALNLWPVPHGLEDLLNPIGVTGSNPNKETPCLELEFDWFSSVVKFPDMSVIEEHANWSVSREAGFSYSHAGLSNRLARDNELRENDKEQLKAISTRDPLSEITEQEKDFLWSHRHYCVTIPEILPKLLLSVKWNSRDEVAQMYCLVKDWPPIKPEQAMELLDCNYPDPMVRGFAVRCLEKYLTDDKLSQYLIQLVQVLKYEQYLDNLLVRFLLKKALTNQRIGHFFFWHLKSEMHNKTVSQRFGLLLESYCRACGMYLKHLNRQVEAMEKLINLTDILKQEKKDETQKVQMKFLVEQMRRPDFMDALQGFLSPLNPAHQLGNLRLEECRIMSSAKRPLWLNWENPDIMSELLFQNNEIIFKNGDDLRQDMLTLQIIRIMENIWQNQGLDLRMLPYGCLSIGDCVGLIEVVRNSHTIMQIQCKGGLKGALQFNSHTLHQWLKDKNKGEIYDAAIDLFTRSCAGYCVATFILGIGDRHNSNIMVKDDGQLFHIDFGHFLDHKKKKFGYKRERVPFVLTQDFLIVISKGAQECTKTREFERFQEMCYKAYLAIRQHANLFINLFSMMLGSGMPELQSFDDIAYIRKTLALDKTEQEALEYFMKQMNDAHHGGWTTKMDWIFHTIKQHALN
# T1 sequence (P27986 whole entry partner): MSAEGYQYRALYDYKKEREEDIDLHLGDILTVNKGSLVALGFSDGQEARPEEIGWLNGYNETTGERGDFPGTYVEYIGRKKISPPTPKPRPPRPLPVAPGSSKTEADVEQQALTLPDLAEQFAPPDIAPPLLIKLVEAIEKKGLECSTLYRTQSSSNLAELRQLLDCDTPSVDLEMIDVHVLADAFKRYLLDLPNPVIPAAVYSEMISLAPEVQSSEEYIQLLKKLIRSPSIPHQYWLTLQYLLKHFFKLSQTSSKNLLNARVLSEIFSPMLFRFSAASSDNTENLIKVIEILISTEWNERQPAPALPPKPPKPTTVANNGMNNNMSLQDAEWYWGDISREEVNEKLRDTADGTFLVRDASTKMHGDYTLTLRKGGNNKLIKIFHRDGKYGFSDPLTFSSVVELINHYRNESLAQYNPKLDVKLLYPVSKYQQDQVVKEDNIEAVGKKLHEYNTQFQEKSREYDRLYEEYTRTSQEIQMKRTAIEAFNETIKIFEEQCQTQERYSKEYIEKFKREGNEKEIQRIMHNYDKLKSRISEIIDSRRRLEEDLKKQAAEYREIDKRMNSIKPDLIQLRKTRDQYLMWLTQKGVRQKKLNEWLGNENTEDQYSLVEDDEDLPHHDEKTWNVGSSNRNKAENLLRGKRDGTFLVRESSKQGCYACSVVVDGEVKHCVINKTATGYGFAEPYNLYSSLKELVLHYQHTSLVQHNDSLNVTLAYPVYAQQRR
# Procedure, shortened: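 Jurkat lysate from sonicated frozen cells was preincubated 1 h at rt with serially diluted compound up to 200 μM, then labelled 1 h at rt with PIK3CA biotin probe at 500 nM final. Probe-bound PIK3CA was captured on antibody-coated plates and detected with Neutravidin-HRP luminescence; TE50 derived from the dose response.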
# [1] = tested on: pAKT(S473) in H358 cell line; experiment: In vitro Phospho-AKT(S473) HTRF analysis in H358 cells; format: cell-based; conditions: Homo sapiens, NCI-H358, 0.5 h; for IC50: H358 cells, 30 minutes at 37° C.; for Emax: read-out: H358 pAKT Imax % control
# Protocol: Example 5. In Vitro Phosgho-AKT(S473) Analysis
# Functional activity of the compounds to inhibit pAKT were assessed in FaDu or H358 cell lines as indicated below.
# • Complete Media • FBS, Corning catalog #35-010-CV • Anti-Anti, Gibco catalog #15240-062 • 96 well plate, Corning catalog #3610 • TrypLE, Gibco catalog #12604013 • Phospho-AKT(S473) HTRF kit, Cisbio catalog #64AKSPET
# Cells were detached from the tissue culture flask with TrypLE. The cells were pelleted at 500×g for 5 min, TrypLe was removed and then resuspended in the necessary volume of media+1% FBS to give the appropriate cell density (17,500 cells/mL for FaDu; 20,000 cells/mL for H358). 100 μL of cell suspension/well was dispensed into the 96-well plate while keeping the outer wells of the plate free of cells and filled with PBS to prevent evaporation of interior wells. The plate was incubated at 37° C. and allowed to adhere overnight. The cells were treated with a dose response of compound and incubated at 37° C. for 30 minutes. The cells were then processed and pAKT(S473) levels were assessed following the specifications of the Cisbio HTRF kit.
# PIK3CA_C242 = biological target: T2, PIK3CA_C242 (Homo sapiens, UniProt P42336); experiment: Proteomic TE50 (IA-DTB / TMT mass spectrometry) in Jurkat cell lysate; format: binding; conditions: 1 hour at rt, 7-point dose response
# T2 construct: endogenous in cells; host or cells: Jurkat cell lysate
# T2 sequence (P42336 whole entry): as the sequence (P42336 whole entry) above
# T2 sequence (P27986 whole entry partner): as the sequence (P27986 whole entry partner) above
# Procedure, shortened: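 Jurkat lysate (500 μg) treated with compound (7-point, 1:5 dilutions) for 1 h at rt, then labelled with 200 μM IA-DTB for 1 h. After digestion and streptavidin enrichment, the C242 peptide was quantified by targeted MS3 TMT. TE50 was derived from reporter-ion S/N dose-response curves.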
# [2] = tested on: pAKT(S473) in FaDu cell line; experiment: In vitro Phospho-AKT(S473) HTRF analysis in FaDu cells; format: cell-based; conditions: Homo sapiens, 0.5 h; for IC50: FaDu cells, 30 minutes at 37° C.; for Emax: FaDu, read-out: FaDu pAKT Imax % control
# Procedure, shortened: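 FaDu or H358 cells were plated overnight in medium with 1% FBS, then exposed to a compound dose response for 30 minutes at 37° C. Phospho-AKT(S473) levels were measured by HTRF.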
SMILES,IC50 (PIK3CA),IC50 [1],IC50 (PIK3CA_C242),IC50 [2],Emax [1],Emax [2]
"C[C@H](/C=C\S(C)(=O)=O)NC(=O)[C@@]1(F)CCCN(C(=O)[C@H]2CN(CC(F)(F)F)C[C@H]2c2cccc(F)c2F)CC1 (single isomer, unassigned) [Compound 173, (R)-1-((3*R,4*R)-4-(2,3-difluorophenyl)-1-(2,2,2-trifluoroethyl)pyrrolidine-3-carbonyl)-4-fluoro-N-((R,Z)-4-(methylsulfonyl)but-3-en-2-yl)azepane-4-carboxamide]",0.54 µM,0.464 µM,,,85.5%,
"C[C@H]1C[C@](F)(C(=O)N[C@@H]2C=CS(=O)(=O)C2)CCN1C(=O)[C@H]1CN(CC(F)(F)F)C[C@H]1c1cccc(F)c1Cl (single isomer, unassigned) [Compound 175, (2*S,4*S)-1-((3*R,4*R)-4-(2-chloro-3-fluorophenyl)-1-(2,2,2-trifluoroethyl)pyrrolidine-3-carbonyl)-N-((R)-1,1-dioxido-2,3-dihydrothiophen-3-yl)-4-fluoro-2-methylpiperidine-4-carboxamide]",0.62 µM,0.151 µM,,,75.6%,
"C[C@H](/C=C\S(C)(=O)=O)NC(=O)[C@@]1(F)CCCN(C(=O)[C@H]2CN(CC3(F)CC3)C[C@H]2c2c(F)cccc2Cl)CC1 (single isomer, unassigned) [Compound 184, (R)-1-((3*R,4*R)-4-(2-chloro-6-fluorophenyl)-1-((1-fluorocyclopropyl)methyl)pyrrolidine-3-carbonyl)-4-fluoro-N-((R,Z)-4-(methylsulfonyl)but-3-en-2-yl)azepane-4-carboxamide]",0.085 µM,0.0646 µM,,,102%,
"C[C@H]1C[C@](F)(C(=O)N[C@@H]2C=CS(=O)(=O)C2)CCN1C(=O)[C@H]1CN(CC(C)(F)F)C[C@H]1c1ccccc1Cl (single isomer, unassigned) [Compound 221, (2*S,4*S)-1-((3R,4R)-4-(2-chlorophenyl)-1-(2,2-difluoropropyl)pyrrolidine-3-carbonyl)-N-((R)-1,1-dioxido-2,3-dihydrothiophen-3-yl)-4-fluoro-2-methylpiperidine-4-carboxamide]",0.21 µM,0.123 µM,,,85%,
"C[C@H](/C=C\S(C)(=O)=O)NC(=O)[C@@]1(F)CCCN(C(=O)[C@@H]2CN(CC(C)(F)F)C[C@@H]2c2cccc(F)c2Cl)CC1 (single isomer, unassigned) [Compound 222, (R)-1-((3*S,4*S)-4-(2-chloro-3-fluorophenyl)-1-(2,2-difluoropropyl)pyrrolidine-3-carbonyl)-4-fluoro-N-((R,Z)-4-(methylsulfonyl)but-3-en-2-yl)azepane-4-carboxamide]",0.21 µM,0.146 µM,,,91%,
"C[C@H](/C=C\S(C)(=O)=O)NC(=O)[C@@]1(F)CCCN(C(=O)[C@H]2CN(CC(F)(F)F)C[C@H]2c2ccccc2F)CC1 (single isomer, unassigned) [Compound 223, (R)-4-fluoro-1-((3*R,4*R)-4-(2-fluorophenyl)-1-(2,2,2-trifluoroethyl)pyrrolidine-3-carbonyl)-N-((R,Z)-4-(methylsulfonyl)but-3-en-2-yl) azepane-4-carboxamide]",0.51 µM,0.346 µM,,,87.5%,
"Cc1ccccc1[C@@H]1CN(CC(F)(F)F)C[C@@H]1C(=O)N1CCC[C@](F)(C(=O)N[C@H](C)/C=C\S(C)(=O)=O)CC1 (single isomer, unassigned) [Compound 224, (R)-4-fluoro-N-((R,Z)-4-(methylsulfonyl)but-3-en-2-yl)-1-((3*R,4*R)-4-(o-tolyl)-1-(2,2,2-trifluoroethyl)pyrrolidine-3-carbonyl) azepane-4-carboxamide]",0.52 µM,0.326 µM,,,81.2%,
"C[C@H]1C[C@](F)(C(=O)N[C@@H]2C=CS(=O)(=O)C2)CCN1C(=O)[C@@H]1CN(CC(C)(F)F)C[C@@H]1c1cccc(F)c1Cl (single isomer, unassigned) [Compound 225, (2*S,4*S)-1-((3*S,4*S)-4-(2-chloro-3-fluorophenyl)-1-(2,2-difluoropropyl)pyrrolidine-3-carbonyl)-N-((R)-1,1-dioxido-2,3-dihydrothiophen-3-yl)-4-fluoro-2-methylpiperidine-4-carboxamide]",0.64 µM,0.465 µM,,,78.8%,

# Now from value to compound, other results behind:
IC50 (PIK3CA),IC50 [1],IC50 (PIK3CA_C242),IC50 [2],SMILES,Emax [1],Emax [2]
0.43 µM,0.067 µM,,,"C[C@H](/C=C\S(C)(=O)=O)NC(=O)C1(F)CCN(C(=O)[C@H]2CCC(C)(C)C[C@@H]2c2ccccc2Cl)CC1 (racemic) [Compound 255, 1-((1*S,2*S)-2-(2-chlorophenyl)-4,4-dimethylcyclohexane-1-carbonyl)-4-fluoro-N-((R,Z)-4-(methylsulfonyl)but-3-en-2-yl)piperidine-4-carboxamide]",86.7%,
0.078 µM,0.0566 µM,,,"C[C@H](/C=C\S(C)(=O)=O)NC(=O)[C@@]1(F)CCCN(C(=O)[C@H]2CN(CC(C)(F)F)C[C@H]2c2c(F)cccc2Cl)CC1 (single isomer, unassigned) [Compound 183]",93.2%,
0.158 µM,,0.133 µM,0.409 µM,"C[C@H](/C=C\S(C)(=O)=O)NC(=O)C1(F)CCN(S(=O)(=O)c2ccc(C(F)(F)F)cc2-c2ccccc2Cl)CC1 [Compound 33, (R,Z)-1-((2′-chloro-5-(trifluoromethyl)-[1,1′-biphenyl]-2-yl)sulfonyl)-4-fluoro-N-(4-(methylsulfonyl)but-3-en-2-yl)piperidine-4-carboxamide]",,86.2%
0.165 µM,,0.14 µM,0.33 µM,"C[C@H](/C=C\S(C)(=O)=O)NC(=O)C1(F)CCN(S(=O)(=O)c2ccc(C#N)cc2-c2ccccc2Cl)CC1 [Compound 35, (R,Z)-1-((2′-chloro-5-cyano-[1,1′-biphenyl]-2-yl)sulfonyl)-4-fluoro-N-(4-(methylsulfonyl)but-3-en-2-yl)piperidine-4-carboxamide]",,103%
0.177 µM,,0.15 µM,0.348 µM,"C[C@H](/C=C/C(=O)N1CC(F)(F)C1)NC(=O)C1(F)CCN(S(=O)(=O)c2ccc(C(F)(F)F)cc2-c2ccccc2Cl)CC1 [Compound 134, 1-[2-(2-chlorophenyl)-4-(trifluoromethyl)phenyl]sulfonyl-4-fluoro-N—[(E,1R)-4-(3,3-difluoroazetidin-1-yl)-1-methyl-4-oxo-but-2-enyl]piperidine-4-carboxamide]",,96.3%
0.075 µM,,0.05 µM,0.0824 µM,"COc1ccc(S(=O)(=O)N2CC[C@@](F)(C(=O)N[C@H](C)/C=C\S(C)(=O)=O)C[C@H]2C)c(-c2ccccc2Cl)c1 [Compound 141, (2R,4S)-1-[2-(2-chlorophenyl)-4-methoxy-phenyl]sulfonyl-4-fluoro-2-methyl-N—[(Z,1R)-1-methyl-3-methylsulfonyl-allyl]piperidine-4-carboxamide]",,102%
0.226 µM,,0.2 µM,0.284 µM,"COc1ccc(S(=O)(=O)N2CC[C@@](F)(C(=O)N[C@H](C)/C=C/C(=O)N3CC(F)(F)C3)C[C@H]2C)c(-c2ccccc2Cl)c1 [Compound 151, (2R,4S)-1-((2′-chloro-5-methoxy-[1,1′-biphenyl]-2-yl)sulfonyl)-N-((R,E)-5-(3,3-difluoroazetidin-1-yl)-5-oxopent-3-en-2-yl)-4-fluoro-2-methylpiperidine-4-carboxamide]",,100%
,,0.0681 µM,0.152 µM,"COc1cc(-c2ccccc2Cl)c(S(=O)(=O)N2CCC(F)(C(=O)N[C@@H](C)/C=C\S(C)(=O)=O)CC2)cn1 [Compound 187, (S,Z)-1-((4-(2-chlorophenyl)-6-methoxypyridin-3-yl)sulfonyl)-4-fluoro-N-(4-(methylsulfonyl)but-3-en-2-yl)piperidine-4-carboxamide]",,70.1%
0.184 µM,,0.15 µM,0.803 µM,"C[C@H](/C=C\S(C)(=O)=O)NC(=O)C1(F)CCN(S(=O)(=O)c2cnc(C(F)(F)F)cc2-c2ccccc2Cl)CC1 [Compound 207, (R,Z)-1-((4-(2-chlorophenyl)-6-(trifluoromethyl)pyridin-3-yl)sulfonyl)-4-fluoro-N-(4-(methylsulfonyl)but-3-en-2-yl)piperidine-4-carboxamide]",,75.2%
